Like-named read-outs stand apart in the source and are kept apart here.
Tests used:
[1] = Crossover dietary trial: serum AED concentration; type: in vivo, canine; conditions: for concentration at 3 months: both sexes, mixed: 17 different breeds and cross breeds, dog, in vivo, read-out: serum concentration of PB
Experimental: A 6-month prospective, randomized, double blinded, placebo controlled, crossover dietary trial comparing an MCT-containing diet to a standardized placebo diet containing no MCTs in canine epilepsy was performed. Subjects were fed either the MCT or placebo diet for 3 months (Day 1 to Day 90±2 days) followed by a subsequent respective switch of diet for a further 3 months (Day 90 to Day 180±2 days). Relevant data were collected on the following variables at visit 1 (Day −2), visit 2 (Day 90±2 days) and visit 3 (day 180±2 days): seizure frequency; body weight; measurements of serum phenobarbital (PB) and/or (potassium bromide) KBr concentration as appropriate; dynamic bile acids; complete blood cell count; standard clinical serum chemistry; and adverse events.
Seizure frequency refers to the number of seizures per month and seizure-days refers to the number of days in a month with seizure occurrence. The severity of seizures was analyzing using the McNemar test by comparing the presence of cluster seizures between diet groups. Comparisons made between the MCT and placebo standardized diet groups were made using match-paired student's t tests for parametric data and Wilcoxon matched-pairs signed rank test for non-parametric data where both were used two-sided and P<0.05 was considered significant. Non-parametric data are presented as median (25-75% percentile) and parametric data are shown as mean (+/−SD).
The present study used twenty-one dogs of 17 different canine breeds including: American bulldog; 2 Beagles; 2 Border Collies; Boxer; Cavalier King Charles Spaniel; English Bull Terrier; English Springer Spaniel; German Shepherd; Golden Retriever; Lhasa Apso; Mastiff; Rhodesian Ridgeback; Saint Bernard; Siberian Husky; Slovakian Rough Haired Pointer; Welsh Springer Spaniel and 3 Cross breeds. The study population consisted of 15 males, of which 10 were neutered and 5 were intact and 6 females of which 4 were neutered and 2 were intact. The dogs were of 4.59±1.73 years of age and weighed 29.79±14.73 kilograms at start of trial. All 21 dogs received PB. Most dogs were also treated additionally with KBr (n=18). Some dogs were chronically treated with a third AED, imepitoin (n=1) or levetiracetam (n=4). Twelve owners had rectal diazepam or levetiracetam for pulse therapy at home available for the acute treatment of cluster seizure episodes. There was no difference for the acute or chronic treatment regimens between the placebo or MCT phase.

[2] = system: fifteen year old Dalmatian diagnosed with idiopathic epilepsy; test: Example 2 case: Dalmatian with idiopathic epilepsy; type: in vivo, canine; conditions: treatment subsequently discontinued
Source text: A fifteen year old Dalmatian was diagnosed with idiopathic epilepsy at age 3. Seizure phases of prodrome, aura, ictus, and postictal state were generally one to two […] in length. […] Subsequent treatment was proscribed in the form of an MCT diet (commercially available ProPlan® Senior 7+Chicken and Rice formula formulated to contain 5.6% MCTs, at least 26% crude protein, at least 15% crude fat, and 50% carbohydrates with less than 2% as crude fiber).

Row | SMILES | concentration at 3 months ([1]; MCT diet, spread 25.00-36.75 μg/ml, p=0.4233, no significant change) | concentration at 3 months ([1]; placebo-standardized diet, spread 23.50-34.00 μg/ml) | serum concentration of potassium bromide ([1]; MCT diet, spread 1.02-1.61 mg/ml, p=0.4037, no significant change) | serum concentration of potassium bromide ([1]; placebo-standardized diet, spread 1.09-1.89 mg/ml) | side effects [2]
1 | CCC1(c2ccccc2)C(=O)NC(=O)NC1=O [PB, phenobarbital] | 32.5 µg/mL | 26.5 µg/mL | – | – | –
2 | [Br-].[K+] [potassium bromide] | – | – | 1290 µg/mL | 1230 µg/mL | polyphagia, sedation, and ataxia

— patent US10668041B2, “Compositions and methods comprising medium chain triglycerides for treatment of epilepsy” (Societe des Produits Nestle SA, priority 2014, dated 2020)
